Test results reported in patent US20230310444A1, “COMPOSITIONS AND METHODS FOR TREATING DISEASES AND DISORDERS” (Curis, Inc., priority 2020, published 2023).
“Also recorded” adds a separate entry of the source. Where two headings read alike, the source gives them in different places.

Experiments:
[1] = tested on: resistant or refractory, advanced NHL; test: Phase I dose escalation trial of Compound 1 oral monotherapy in NHL (NCT03328078); format: in vivo, human
Experimental: Seven dosing cohorts included 50 and 100 mg QD, and 50, 100, 200, 300, or 400 mg BID of daily continuous oral monotherapy in 21-Day cycles. Objective included safety and tolerance (primary), pk/pd and early efficacy (secondary), and biomarker correlations (exploratory). 31 patients with resistant or refractory, advanced NHL have been enrolled.

WM = format: in vivo, human
Experimental: The patient remained asymptomatic for over 4 years with a slow increase in m-protein and IgM during that time. By mid-2017 they started to experience increased fatigue. […] There was no evidence of CXCR4 genomic alteration. […] Several options were discussed including clinical trials and standard of care Bruton’s tyrosine kinase inhibitor (BTKi) therapy.
Baseline testing in December 2018 included a bone marrow biopsy showing 5-10% involvement by WM, m-protein of 1.66 g/dL, IgM 2,801 mg/dL, and a computed tomography scan without pathological lymphadenopathy or hepatosplenomegaly. Quantitative immunoglobulins and serum protein electrophoresis were obtained each cycle to determine response to treatment (FIG. 1).
The patient initiated treatment at the first dose level, 50 mg. […] Using a standard 3+3 design the subsequent dose level, 100 mg po BID, was cleared per protocol. Considering evidence of response without noted toxicity, the patient was a candidate to escalate to 100 mg po BID starting with cycle 7 day 1 in April 2019. […] They reported a significant improvement in their quality of life with resolution of fatigue and returned to a rigorous daily exercise program that they had been unable to perform for the last 2 years due to WM-related symptoms. In August 2019 they were noted to have an asymptomatic grade 2 creatine phosphokinase (CPK) elevation, extensive work-up and physical exam was unrevealing. […] During cycles 15 through 20, while on the 200 mg po BID dose, the patient’s IgM plateaued around 1500 mg/dL and m-protein plateaued near 0.9 g/dL. Based on evolving safety data at higher dose levels, the patient was escalated to […] starting with cycle 20 in 1/2020.

[2] = 200 mg po BID, cycles 15 through 20

## Cc1cc(-c2nc(C(=O)Nc3cc4oc(N5CCOCC5)nc4nc3N3CC[C@@H](O)C3)co2)ccn1 [Compound 1]
[1]; 50 mg QD to 400 mg BID
  safety and tolerance overall: well tolerated; also recorded: good safety and tolerance
[1]; 200 mg BID N=5
  Anemia, Grade 3 or Higher: 0 n (%) [E]
  Thrombocytopenia, All Grades: 0 n (%) [E]
  Thrombocytopenia, Grade 3 or Higher: 0 n (%) [E]
[1]; 300 mg BID N=6
  Anemia, Grade 3 or Higher: 0 n (%) [E]
  Thrombocytopenia, All Grades: 0 n (%) [E]
  Thrombocytopenia, Grade 3 or Higher: 0 n (%) [E]
[1]; 400 mg BID N=8
  Neutropenia, Grade 3 or Higher: 0 n (%) [E]
[1]; DLBCL (transformed MZL), initial 50 mg qd, final 50 mg qd
  Tumor Reduction: 24%
[1]; DLBCL-ABC, initial 400 mg bid, final 400 mg bid
  Tumor Reduction: 42%
[1]; DLBCL, initial 50 mg bid, final 50 mg bid
  Tumor Reduction: 11%
[1]; FL, initial 100 mg qd, final 50 mg qd
  Tumor Reduction: 49%
[1]; LPL, initial 200 mg bid, final 300 mg bid *
  Tumor Reduction: 20%
[1]; MALT/MZL, initial 400 mg bid, final 300 mg bid*
  Tumor Reduction: 25%
[1]; MZL, initial 400 mg bid, final 400 mg bid
  Tumor Reduction: 5%
[1]; WM, initial 50 mg bid, final 300 mg bid *
  Tumor Reduction: 66%
[1]; in vivo
  pharmacodynamic changes, cytokines: cytokine reductions
  pharmacokinetics, exposure versus dose: dose-proportional increases in exposure
[1]; summary
  clinical activity: preliminary clinical activity
  pharmacokinetic properties: desirable pharmacokinetic properties
[1]; treatment duration between < 1 and 18+ months
  disease control: sustained disease control
WM; 50 mg, cycle 6 day 1
  IgM: 2639 mg/dL
WM; 50 mg, during first 2 cycles, baseline 2801 mg/dL
  IgM: 2866 mg/dL
WM; 50 mg, first six 21-day cycles, baseline 1.66 g/dL
  m-protein: 1.55 g/dL
WM; 100 mg po BID, cycles 7 and 8
  response: stable disease (SD)
WM; [2]
  IgM plateau: around 1500 mg/dL
  m-protein plateau: ~0.9 g/dL
WM; 300 g po BID from cycle 20, C22 day 1
  IgM: 1241 mg/dL
WM; after 100 mg po BID cycles 7-8, prior to 200 mg BID escalation
  m-protein: 1.37 g/dL
WM; from cycle 20, C22 day 1
  m-protein: 0.68 g/dL
